Reference: paper PMC7906020, “Trp-Containing Antibacterial Peptides Impair Quorum Sensing and Biofilm Development in Multidrug-Resistant Pseudomonas aeruginosa and Exhibit Synergistic Effects With Antibiotics” (Frontiers in Microbiology, 2021)
Peptide text beside a SMILES is read from it.

Key:
[1] = test system: pyocyanin production in MRPA0108; experiment: Pyocyanin production assay; type: cell-based, Pseudomonas aeruginosa; settings: peptide at 1/4 × MIC, 24 h; OD 520 nm; vs untreated control; triplicate
Protocol: The culture supernatant was obtained after centrifugation at 12,000×g for 10 min. (1) LasB elastase activity was measured using elastin-Congo red (ECR) as the substrate, as described by [Pattnaik et al. (2018)]. Briefly, 100 μl of the culture supernatant was added to 900 μl of ECR buffer (100 mM Tris-HCl, 1 mM CaCl2, pH 7.5) containing 10 mg of ECR and then incubated with shaking at 37°C for 18 h. Then, 100 μl of 0.12 M EDTA was added to stop the reaction. The insoluble ECR was removed by centrifugation, and the supernatant absorbance was measured at 495 nm. The optical density (OD) 495 nm/OD 600 nm represents the elastase activity. (2) LasA protease activity was measured as follows ([Pattnaik et al., 2018]): first, the culture supernatant was filtered to remove the bacterial cells, and then 150 μl of sterile-filtered supernatant was added to 2% azocasein (prepared in 50 mM Tris-HCl) and incubated for 4 h at 37°C. […] After centrifugation at 10,000 rpm for 10 min, 1 M NaOH was added to the supernatant, and the relative protease activity was measured at OD 440 nm. (3) The pyocyanin assay was based on the absorbance of excreted pyocyanin at 520 nm in an acidic solution ([Kong et al., 2005]). […] The OD 520 nm was measured to evaluate the change in pyocyanin content. […] The absorbance was measured at 420 nm. (5) The level of C4-HSL was quantified by GC-MS as previously described ([Guo et al., 2012]).

[2] = cited from earlier work
Source text: Supplement Table_1.docx, table 1: Table S1 Biological characteristics and antibacterial activities of the Trp-containing antimicrobial peptides (32) | column: Hemolysis (μM)

Q: Which “reduction of pyocyanin production” value [1] does the source give for `CC[C@H](C)[C@H](NC(=O)[C@H](CCCCN)NC(=O)[C@H](CO)NC(=O)[C@H](CC(C)C)NC(=O)[C@@H](NC(=O)[C@H](CCCCN)NC(=O)[C@H](CCCCN)NC(=O)[C@@H](N)Cc1c[nH]c2ccccc12)[C@@H](C)CC)C(=O)N[C@@H](CCCCN)C(=O)N[C@@H](CCCCN)C(=O)N[C@@H](CC(C)C)C(=O)N[C@@H](CC(C)C)C(=O)N[C@@H](CCCCN)C(N)=O` [I1W] (H-WKKILSKIKKLLK-NH2; N-terminus and C-terminus assumed) here?
A: Its value is 73.7%.

Q: And the Hemolysis [2]?
A: The Hemolysis was greater than 500 µM.
